The record followed here is patent EP4606376A1 (ShanghaiTech University, priority 2022, dated 2024).

For one assay, the system named is SARS-CoV-2 Delta. The assay can be described thus: microbe, parasite or virus in culture. The format is cell-based. Particulars: Severe acute respiratory syndrome coronavirus 2, 24 h.
The target in a further assay is TMPRSS2 (Homo sapiens, UniProt O15393). The assay can be described thus: In vitro enzyme activity inhibition assay (TMPRSS2, substrate Boc-Gln-Ala-Arg-AMC). Particulars: cross-validation; FIG. 2B.
Chain of TMPRSS2 (O15393 whole entry): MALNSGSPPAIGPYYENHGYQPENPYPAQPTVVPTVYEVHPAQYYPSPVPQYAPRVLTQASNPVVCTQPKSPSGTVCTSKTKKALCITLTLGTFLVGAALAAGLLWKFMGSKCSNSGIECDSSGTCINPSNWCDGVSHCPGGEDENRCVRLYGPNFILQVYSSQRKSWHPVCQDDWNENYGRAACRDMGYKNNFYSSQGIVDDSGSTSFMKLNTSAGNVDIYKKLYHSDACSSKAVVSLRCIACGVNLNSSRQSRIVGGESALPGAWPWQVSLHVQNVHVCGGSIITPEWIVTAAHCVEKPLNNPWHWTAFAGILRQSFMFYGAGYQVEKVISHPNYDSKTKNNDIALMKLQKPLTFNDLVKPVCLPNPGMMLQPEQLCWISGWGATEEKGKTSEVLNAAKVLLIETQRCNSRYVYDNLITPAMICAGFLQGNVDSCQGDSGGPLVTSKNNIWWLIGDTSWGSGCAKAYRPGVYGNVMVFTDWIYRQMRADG
The target in another assay is Cathepsin L (Homo sapiens, UniProt P07711). The assay can be described thus: In vitro enzyme activity inhibition assay (Cathepsin L, substrate Cbz-Phe-Arg-AMC). In kind it is biochemical. Particulars: cross-validation; FIG. 2A.
Chain of Cathepsin L (P07711 114-333): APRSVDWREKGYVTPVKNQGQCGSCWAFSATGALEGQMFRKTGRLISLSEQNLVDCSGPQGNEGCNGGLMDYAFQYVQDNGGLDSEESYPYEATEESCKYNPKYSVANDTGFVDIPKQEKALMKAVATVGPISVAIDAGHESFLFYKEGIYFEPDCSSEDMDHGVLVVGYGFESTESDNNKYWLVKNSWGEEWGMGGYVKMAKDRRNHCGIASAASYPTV

Method for Cathepsin L: (§1) Columns 15 to 20 were added with an equivalent volume of DMSO as a positive control group, and columns 18 to 20 were added with an equivalent volume of buffer as a negative control group. […] The 384-well plate was placed in a microplate reader for detection, and the slope of fluorescence intensity increase in the first 2 minutes of the enzymatic reaction was taken as the activity of the protein for subsequent calculation.
Method for TMPRSS2: as §1

In the case of `CN1CCN(C(=O)N[C@@H](Cc2ccccc2)C(=O)N[C@H](/C=C/S(=O)(=O)c2ccccc2)CCc2ccccc2)CC1` [K777], in the assay on SARS-CoV-2 Delta ([…], combination at a molar ratio of 1:1, FIG. 3), the EC50 was 660 nM. At TMPRSS2, the “inhibitory activity against TMPRSS2” value is “no inhibitory activity”.
In turn, `N=C(N)Nc1ccc(C(=O)Oc2ccc3cc(C(=N)N)ccc3c2)cc1` [Nafamostat] registered an EC50 in the assay with SARS-CoV-2 Delta of 20 nM. Moreover, the “inhibitory activity against Cathepsin L” value against Cathepsin L is on record as “no inhibitory activity”.
